The source of these data is patent US12275953B2, “Methods for screening host cells expressing target proteins” (Industrial Technology Research Institute, priority 2020, dated 2025).

One data set concerns HEK293T cell line. To be noted: 125 μM FeSO4, 72 hours, cells transfected with pCDNA3.1-CMV-cgFth1-p2A-EGFP vs Mock vector. The procedure:
(§1) After 24 hours of adherent culture in F12 medium (Ham's F-12 Nutrient Mix, Gibco) containing 10% FBS, the transfection of vectors (pCDNA3.1-CMV-cgFth1-p2A-EGFP and pCDNA3.1-CMV-p2A-EGFP_Mock, which served as a blank control group) were carried out with Lipofectamine 3000 (Thermo Fisher Scientific Inc.) to promote the overexpression of FTH1 gene. 24 hours after the DNA transfection of the vectors, 125 μM ferrous sulfate (FeSO4) was added to the cell culture broth, and at the same time different doses of ferroptosis inducers FINO2 (0 μM to 20 μM) were added to induce ferroptosis. After 3 days (72 hours) of action, the Celigo Image Cytometer (Nexcelom) was used to analyze the fluorescence cell count and fluorescence quantification, thereby estimating the screening efficiency.

The test system of the next data set is VERO cell line. To be noted: 125 μM FeSO4, 72 hours, cells transfected with pCDNA3.1-CMV-cgFth1-p2A-EGFP vs Mock vector. As to the method: as §1
Data set [1] concerns CHOK1 cell lines Fth1_WT and Fth1_KO.
The subject of data set [2] is CHOK1 cell lines Fth1-WT and Fth1-KO transfected with pCDNA3.1-CMV-cgFth1-p2A-EGFP. The experiment in a line: Screening efficiency of transfected cells under iron ion-induced ferroptosis (Celigo Image Cytometer). In kind it is cell-based, Chinese hamster. The procedure: as §1, with “vector (pCDNA3.1-CMV-cgFth1-p2A-EGFP) was” for “vectors (pCDNA3.1-CMV-cgFth1-p2A-EGFP and pCDNA3.1-CMV-p2A-EGFP_Mock, which served as a blank control group) were”, “the” for “the fluorescence”, “morphology, viability, cell count, fluorescent cell count,” for “count”

Data set [3] relates to SKBR3 breast cancer cells rich in HER2 antigen. The experiment in a line: ADCC biological activity reporter gene assay (Jurkat-hFcγRIIIa-NFAT effector cells, luciferase). As to conditions: compared with the validated purified Anti-HER2 IgG1 (h4D5) recombinant antibody protein; 24 hours of reaction. In kind it is cell-based. As to the method:
Jurkat-hFcγRIIIa-NFAT gene transgenic cells was used as effector cells and SKBR3 breast cancer cells rich in HER2 antigen was used as target cells in ADCC biological activity reporter gene detection system (Promega, #G9790).
First, 100 μl of SKBR3 cells with a cell density of 10^5/ml were added to the 96-well culture plate, placed at 37° C. for overnight culture to allow the cells to adhere and grow, the supernatant was removed the next day, and 25 μl of serially diluted recombinant antibodies prepared in […] medium containing 0.5% fetal bovine serum were added. Next, 25 μl of lurkat-hFcγRIIIa-NFAT effector cells with a cell density of 6×10^6/ml were added.

Data set [4] relates to CHOK1 cell lines Fth1_WT and Fth1_KO. Briefly: Cytotoxicity test of screening medium formulations (AlamarBlue cell viability). As to conditions: FINO2 and fatty acid PA together, without the addition of iron ions FeSO4.

Where two headings read alike, the source gives them in different places.

Turning to `CC1(CCO)CC2(CCC(C(C)(C)C)CC2)OO1` (centres unmarked) [FINO2], the “concentration producing significant screening effects” value in the data set with HEK293T cell line came out at 1.25 µM; in the data set on VERO cell line, 5 µM. The cytotoxicity entry in data set [1] is given as “did not cause cytotoxicity”. Besides, the “relation of increased dose to overall cell viability” value in data set [2] (FINO2 0 μM to 20 μM with 125 μM FeSO4, 72 hours) is on record as “negatively correlated with overall cell viability”. Besides, the cell screening rate in data set [2] (high dose of ferroptosis inducer (>15 μM), 125 μM FeSO4, 72 hours) is given as 100%.

On to “V3: Anti-HER2 IgG1 (h4D5) recombinant antibody from cell line C8, vector pcDNA3.1-CMV-GOI1-furin-p2A-GOI2-IRES-cgFth1, without adding iron ions”, for which the ADCC effect result in data set [3] is “could obviously induce ADCC”.

As for `CCCCCCCCCCCCCCCC(=O)O` [PA, Palmitic acid], the cytotoxicity entry in data set [4] is listed as “did not cause cytotoxicity”.

Turning to “V2: Anti-HER2 IgG1 (h4D5) recombinant antibody produced by expression vector pBudCE4.1-CMV-GOI1-SV40-cgFth1-EF1α-GOI2”, the ADCC effect result in data set [3] is on record as “could obviously induce ADCC”.
